Consider twelve molecules from patent publication US20050065118A1, “Organosulfur inhibitors of tyrosine phosphatases” (priority 2001, published 2005).

As usually defined, the IC50 is the midpoint of a concentration-inhibition curve. A low value points to higher potency. By melting point is commonly meant the temperature of the solid-liquid transition.

Molecules are shown by their SMILES. Where “and” joins values, the source holds several entries; their conditions need not be identical. Equal entries are not always repeated.

The target in series [1] is T1, PTP-1B (Homo sapiens, UniProt P18031).
T1 sequence (P18031 1-435): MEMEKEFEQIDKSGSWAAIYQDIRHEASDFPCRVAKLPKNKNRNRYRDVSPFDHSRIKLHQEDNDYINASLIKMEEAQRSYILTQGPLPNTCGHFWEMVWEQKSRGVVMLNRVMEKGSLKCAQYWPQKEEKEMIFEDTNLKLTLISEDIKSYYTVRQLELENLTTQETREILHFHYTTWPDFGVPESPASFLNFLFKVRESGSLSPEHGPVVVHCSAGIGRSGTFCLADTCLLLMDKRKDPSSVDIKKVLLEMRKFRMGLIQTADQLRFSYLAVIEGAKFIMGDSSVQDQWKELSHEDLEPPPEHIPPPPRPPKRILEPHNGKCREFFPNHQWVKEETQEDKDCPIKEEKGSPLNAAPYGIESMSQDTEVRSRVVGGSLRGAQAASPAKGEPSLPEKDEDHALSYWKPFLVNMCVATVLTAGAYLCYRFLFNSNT
Kind of series: PTP-1B inhibition, Malachite Green assay with pIRP substrate. Format: biochemical. The procedure:
The compounds of the present invention are evaluated for biological activity as inhibitors of PTP-1B using, for example, a Malachite Green assay with pIRP as a substrate. The pIRP substrate includes a phosphotyrosine residue, and PTP-1B cleaves the phosphate group from the tyrosine, yielding the peptide and phosphate. The rate of the enzymatic reaction is determined by measuring the phosphate released during the reaction.
The reactants for the assay include 20 mM Tris-HCl, pH 7.4, 2 mM EDTA (ethylaminediamine tetraacetic acid) and 2 mM DTT (dithiothreitol) as the assay buffer, and 1 mM pIRP in assay buffer (1 mg in 0.59 mL buffer) as the substrate stock. The Malachite Green solution is prepared by adding 30 μL of 1% Tween 20 to 1 mL of Malachite Green Solution A. The stock of each compound to be tested is made up as 10 mM in DMSO (dimethylsulfoxide).
The compound to be tested is prepared as 1:5, 1:15.8, 1:50 and 1:158 dilutions from stock in a total volume of […]. The reaction mixtures are prepared in a 96-well microtiter plate as 27.5 μL assay buffer, […] of the diluted compound (to a final concentration of 100, 32, 10 and 3.2 μM), 10 μL of the pIRP substrate solution (to a final concentration of 200 μM) and 10 μL PTPase in assay buffer. The reactants are mixed well, the plate placed in a water bath at 30° C. and incubated for 3 minutes. The reaction is then terminated by adding 100 μL of Malachite Green solution per well, color is allowed to develop for 15 minutes, and the A650 is measured by conventional means.
Unless otherwise indicated, this assay was used to determine activity for the selected compounds whose activity is recorded in the Table.

In series [2] the target is T2, TC-PTP (Homo sapiens, UniProt P17706).
T2 construct: purchased NEB
T2 sequence (P17706 1-317 limits assumed): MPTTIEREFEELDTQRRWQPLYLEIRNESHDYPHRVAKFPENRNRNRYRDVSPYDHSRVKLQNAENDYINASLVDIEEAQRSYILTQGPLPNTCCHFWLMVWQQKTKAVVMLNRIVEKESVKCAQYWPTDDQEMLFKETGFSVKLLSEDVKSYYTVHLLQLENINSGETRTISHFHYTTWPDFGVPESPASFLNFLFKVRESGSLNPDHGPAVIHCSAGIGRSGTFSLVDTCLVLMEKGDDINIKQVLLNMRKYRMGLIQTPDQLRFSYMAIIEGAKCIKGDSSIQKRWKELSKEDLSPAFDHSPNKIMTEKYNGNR
Kind of series: TC-PTP inhibition, pNPP tyrosine phosphatase assay. In kind it is biochemical. The note with it: two values in a cell = two determinations. The procedure: (§1) Alternatively, a pNPP assay can be used to screen compounds for tyrosine phosphatase inhibitory activity as follows: A 5× stock of pNPP (p-nitrophenol phosphate) substrate is prepared as 50 mM pNPP in assay buffer prepared as described above. Various tyrosine phosphatase solutions can be prepared as follows: • PTP-1B (SBI purified, 1 mg/mL) as a 1:250 dilution (to a final concentration of 4 μg/mL); • TC-PTP (NEB, 1000 units in 100 μL) as a 1:50 dilution (to a final concentration of 2U/10 μL (4 μg/mL)); • CD45 (Calbiochem, 20 μg, 400 units in 100 μL) as a 1:50 dilution (to a final concentration of 0.8U/10 μL (4 μg/mL)); • LAR (NEB, 1000 units in 200 μL) as a 1:75 dilution (to a final concentration of 0.7U/10 μL (4 μg/mL)); and • PTP-β (UBI, #14-350, 10,000 units, 40 μg/571 μL) as a 1:17.5 dilution (to a final concentration of 10U/10 μL (4 μg/mL));
(§2) The compound to be tested is prepared as 1:16.7 and 1:50 dilutions from stock in a total volume of […] to give final concentrations of 626 and 200 μM. The reaction mixtures are prepared in a 96-well microtiter plate (on ice) as 55 μL assay buffer, 5 μL of the diluted compound (to a final concentration of 31.3 and 10 μM), 20 μL of the pNPP substrate solution (to a final concentration of 10 mM) and 20 μL PTease in assay buffer. The reactants are mixed well, the plate placed in a water bath at 30° C. and incubated for 10 minutes. The reaction is then terminated by adding 100 μL of 2M K2CO3 per well, and the absorbance is measured at 405 nm by conventional means.

The target in series [3] is T3, PTP-β (Homo sapiens, UniProt P23467).
T3 construct: purchased UBI #14-350
T3 sequence (P23467 1643-1997 limits assumed): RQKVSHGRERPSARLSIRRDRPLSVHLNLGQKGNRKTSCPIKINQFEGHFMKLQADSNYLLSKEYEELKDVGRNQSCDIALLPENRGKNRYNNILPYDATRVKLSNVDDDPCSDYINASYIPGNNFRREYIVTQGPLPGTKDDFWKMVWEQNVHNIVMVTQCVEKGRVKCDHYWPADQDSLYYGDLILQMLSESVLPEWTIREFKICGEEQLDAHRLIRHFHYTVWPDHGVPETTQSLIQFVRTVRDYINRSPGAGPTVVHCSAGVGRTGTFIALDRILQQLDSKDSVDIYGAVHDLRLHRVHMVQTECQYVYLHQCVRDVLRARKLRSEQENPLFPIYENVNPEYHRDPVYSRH
Kind of series: PTP-β inhibition, pNPP tyrosine phosphatase assay. Format: biochemical. The method, then: as §1, §2

The target in series [4] is T4, CD-45 (Homo sapiens, UniProt P08575).
T4 construct: purchased Calbiochem
T4 sequence (P08575 609-1306 limits assumed): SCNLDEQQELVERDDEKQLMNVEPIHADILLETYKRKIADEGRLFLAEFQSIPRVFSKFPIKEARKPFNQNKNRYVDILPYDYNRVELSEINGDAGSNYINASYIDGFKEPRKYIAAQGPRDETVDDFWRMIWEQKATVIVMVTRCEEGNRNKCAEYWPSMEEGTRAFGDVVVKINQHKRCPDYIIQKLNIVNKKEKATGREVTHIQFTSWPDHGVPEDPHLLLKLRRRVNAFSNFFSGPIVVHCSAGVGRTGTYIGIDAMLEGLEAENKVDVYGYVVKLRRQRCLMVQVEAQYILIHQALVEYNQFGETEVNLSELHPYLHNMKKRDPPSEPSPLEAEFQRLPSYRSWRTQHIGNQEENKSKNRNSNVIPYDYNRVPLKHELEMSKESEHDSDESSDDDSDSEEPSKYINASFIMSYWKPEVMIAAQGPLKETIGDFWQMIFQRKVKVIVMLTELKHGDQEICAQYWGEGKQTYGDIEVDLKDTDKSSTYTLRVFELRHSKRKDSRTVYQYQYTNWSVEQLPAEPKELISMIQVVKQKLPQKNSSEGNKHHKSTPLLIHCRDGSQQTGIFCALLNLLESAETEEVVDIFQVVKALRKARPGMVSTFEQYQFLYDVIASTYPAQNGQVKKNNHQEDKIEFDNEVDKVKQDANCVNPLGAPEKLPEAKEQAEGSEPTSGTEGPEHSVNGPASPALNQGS
Nature of the series: CD45 inhibition, pNPP tyrosine phosphatase assay. Format: biochemical. The procedure: as §1, §2

Consider `O=C(O)c1ccc(Cn2nc(-c3cccc(Oc4cccc(C(F)(F)F)c4)c3)sc2=Nc2ccc(Cl)c(Cl)c2)cc1` [Compound 187, 4-{2-(3,4-Dichloro-phenylimino)-5-[3{3-trifluoromethyl-phenoxy)-phenyl]-[1,3,4]thiadiaziol-3-ylmethyl}-benzoic acid], for which the IC50 is 1 µM in series [1], 1 µM in series [2], 5 µM in series [3] and 5 µM in series [4].

On to `C/C(=N\OCC(=O)O)c1cccc(Nc2nnc(-c3cccc(Oc4cccc(C(F)(F)F)c4)c3)s2)c1` [Compound 190, [1-(3-{5-[3-(3-Trifluoromethyl-phenoxy)-phenyl]-[1,3,4]thiadiazol-2-ylamino}-phenyl)-ethylideneaminooxy]acetic acid], for which the melting point is 220 °C (dec.). Moreover, in series [1], the IC50 was determined as 5 µM.

In turn, `O=C(O)c1cccc(Oc2cccc(-c3nnc(Nc4ccc(Cl)c(Cl)c4)s3)c2)c1` [Example 7, (3-(3-{5[(3,4-dichlorophenyl)amino]-1,3,4-thiadiazol-2-yl}phenoxy)benzoic acid)] returned a melting point of 258 to 259 °C. In series [1], half-maximal inhibition (IC50) was put at 12 µM. Besides, in series [2], the IC50 worked out at 15 µM. Further, in series [3], the IC50 was 31 µM. This molecule also yielded an IC50 in series [4] of 17 µM.

Regarding `Clc1ccc(Nc2nnc(-c3cccc(Oc4cccc(-c5nnn[nH]5)c4)c3)s2)cc1Cl` [Example 14, {5-[3-(3-(1H-1,2,3,4-tetraazol-5-yl)phenoxy)phenyl](1,3,4-thiadiazol-2-yl)}(3,4-dichlorophenyl)amine], the IC50 in series [1] was 5 µM; in series [2] it was 12 µM; in series [3] it was 24 µM; in series [4], 10 µM.

Take `COc1cccc(-c2nn3cc(-c4ccc(-c5ccccc5)cc4)nc3s2)c1` [Example 16, (3-methoxy-1-(6-(4-phenylphenyl)imidazolo(2,1-b)1,3,4-thiadiazolin-2-yl)benzene)]: the IC50 in series [1] is 12 µM; in series [3], over 100 µM; in series [4] it was 30 µM.

`CCOc1cccc(-c2nnc(Nc3ccc(Br)c(Cl)c3)s2)c1` [Example 66, (4-bromo-3-chlorophenyl)[5-(3-ethoxyphenyl)(1,3,4-thiadiazol-2-yl)]amine] yielded a melting point of 204 to 205 °C. Besides, in series [1], half-maximal inhibition (IC50) required 7 µM. The IC50 in series [2] was determined as 20 µM. Moreover, the IC50 in series [3] was over 100 µM. For the same molecule, the IC50 in series [4] amounted to 25 µM.

`O=[N+]([O-])c1cccc(-c2nnc(Nc3cccc(Br)c3)s2)c1` [Example 80, (3-bromophenyl)[5-(3-nitrophenyl)(1,3,4-thiadiazol-2-yl)]amine]: the IC50 is 7 µM in series [1]; 14 µM and 8 µM in series [2]; over 100 µM in series [3]; 80 µM in series [4].

With `Clc1cc(Nc2nnc(-c3cccc(Oc4ccccc4)c3)s2)ccc1Br` [Example 135], the IC50 in series [1] was 6 µM; in series [2] it was 20 µM and 12 µM; in series [3] it was over 100 µM; in series [4], 20 µM.

In turn, `O=C(O)c1ccc(CN(c2ccc(Cl)c(Cl)c2)c2nc(-c3ccc(-c4ccccc4)cc3)cs2)cc1` [Example 168, 4-({(3,4-dichlorophenyl)[4-(4-phenylphenyl)(1,3-thiazol-2-yl)]amino}methyl)benzoic acid.] returned a half-inhibitory concentration (IC50) in series [1] of 1 µM.

Turning to `O=C(O)C(=O)Nc1ccc(CN(c2ccc(Cl)c(Cl)c2)c2nnc(-c3cccc(Oc4cccc(C(F)(F)F)c4)c3)s2)cc1` [Example 169], the melting point is 172 to 174 °C. Also, the concentration for half-maximal inhibition (IC50) in series [1] is 1 µM.

Take `O=C(O)CCCn1nnnc1-c1cccc(Oc2cccc(-c3nnc(Nc4ccc(Cl)c(Cl)c4)s3)c2)c1` [Example 171]: the melting point is 137 to 142 °C (dec.). In addition, the IC50 in series [1] is 2 µM.

In the case of `O=C(O)c1ccc(N/N=C/c2cccc(Oc3cccc(-c4nnc(Nc5ccc(Cl)c(Cl)c5)s4)c3)c2)cc1` [Example 172], the melting point was in the range of 259 to 262 °C. This molecule also yielded an IC50 in series [1] of 0.8 µM. In series [2], this molecule showed an IC50 of 1.6 µM. This molecule also showed an IC50 in series [3] of 30 µM. For the same molecule, in series [4], the IC50 worked out at 14 µM.
